Usually ED50 stands for the dose that gives a 50% effect, or the effect in half of the subjects.

Each structure is given as a SMILES string. “Also recorded” adds a separate entry of the source.

Series [1] has as its system anticonvulsant efficacy. As to the kind of experiment: ED50 for anticonvulsant efficacy (model not stated). Type of series: in vivo. The following applies: Rattus norvegicus, ip, rats. From the text:
(Table 4). Using these unbound drug concentrations, the PI based on drug levels in plasma was 3 and that based upon brain drug levels was 3.8.

Series [2] has as its system human (α2), or rat (α1, α3, α5, γ2L, β3) GABAA receptor subunits. In words: Whole-cell patch-clamp GABA current responses in transfected HEK-293T cells. Type of series: cell-based. The conditions noted are these: GABA EC3-5, drug concentration 100 nM. As for the experimental part:
Human […] (HEK-293T) were transiently transfected with full-length cDNAs encoding human (α2), or rat (α1, α3, α5, γ2L, β3) GABAA receptor subunits using calcium phosphate precipitation. Positively transfected cells were isolated by utilizing co-transfection of a plasmid encoding a surface antibody (pHook™-1, Invitrogen). 20-52 hours following transfection, cells were mixed with magnetic beads coated with antigen specific for the pHook antibody, isolated with a magnetic stand, and then plated onto coverslips and used for patch-clamp recordings 18-28 hours later.
Current responses to GABA were recorded in the whole-cell configuration, with cells voltage-clamped at −50 mV. The bath solution contained (in mM): 142 NaCl, 8.1 KCl, 6 MgCl2, 1 CaCl2), and 10 HEPES (4-(2-hydroxyethyl)-1-piperazineethanesulfonic acid) with pH=7.4 and osmolarity adjusted to 295-305 mOsm. The electrode (internal) solution consisted of (in mM); 153 KCl, 1 MgCl2, 5 K-EGTA (ethylene glycol-bis (β-aminoethyl ether N,N,N′N′-tetraacetate)), and 10 HEPES with pH=7.4 and osmolarity adjusted to 295-305 mOsm. […] Currents were recorded with an Axon 200B (Foster City, Calif.) patch clamp amplifier. […] Data were analyzed by two-way ANOVA followed by post-hoc Tukey's multiple comparison test. […]
On the technique in general: In patch-clamp work, channel activity is measured electrically.

Series [3] can be described thus: Rat inverted screen test (motor impairment). The conditions noted are these: male, Sprague-Dawley, rat, in vivo.
Series [4] concerns motor performance. As to the kind of experiment: Observed motor effects / overt toxicity 4 hr after oral dosing. The series is classed as in vivo. The conditions noted are these: for Observation (motor effects) / Number with observed motor effects: 4 hr post dosing, mice. From the text: This seizure model is utilized to screen for drugs that might […] by other screening approaches. For example, the highly used anticonvulsant leviteracetam was effective in this test but not in the pentylenetetrazole assay. Adult, male mice were subjected to 6 Hz stimulation at 44 mA as originally described by Barton et al. (Epilepsy Res. 2001; 47:217-27) and conducted per protocol of the NTH Anticonvulsant Screening Program (available online from the National Institute of Neurological Disorders and Stroke—6 Hz 44 mA Psychomotor Seizure Model, Mouse). Briefly, a mouse was dosed with KRM-II-81, p.o., and 2 hr later given 6 Hz stimulation for 3 sec delivered through corneal electrodes at 44 mA and observed for the presence or absence of seizure activity. A separate group of mice was dosed with higher doses of KRM-II-81 and observed for potential deficits in motor performance and overt signs of toxicity at 4 hr post dosing.

Series [5] concerns resected human cortical tissue from epileptic patients. In words: Human epileptic cerebral cortex slice electrophysiology. The series is classed as cell-based. The conditions noted are these: 30 μM. The procedure:
The tissue was prepared and treated as previously described (Zwart et al., J. Pharmacal. Exp. Ther., 2014, 351:124-133). Slices were maintained at 37° C. and were perfused at 1.0 ml/min first with normal ACSF (NACSF) solution for one hour to see if the tissue was spontaneously active. […] Tissue was then recorded in EACSF with a concentration of 10 μM picrotoxin for 1 hr. Subsequently, tissue was recorded in EACSF with a concentration of 10 μM of picrotoxin with 30 μM KRM-II-81 and recorded for 1 hour. Following the KRM-II-81 addition, tissue was recorded in a washout solution of EACSF and 10 μM Picrotoxin for 1 hr. The concentration of KRM-II-81 was based upon data collected in human cortical slices with perampanel and upon the need to be conservative in concentration estimates to maximize the opportunity to see an effect given limited human tissue opportunities. A second experiment was conducted using […] (50 μM) as an activator instead of picrotoxin.
Recordings were performed on microelectrode arrays of 60 electrodes as previously described (Zwart et al., J Pharmacol. Exp. Ther., 2014, 351:124-133). LFPs with sharp negative peaks below a threshold set at 3 standard deviations of the signal were marked, and the time of the maximum excursion was recorded as the time of that LFP. Time points were binned at 4 ms. […]

As to `C#Cc1ccc2c(c1)C(c1ccccn1)=NCc1c(-c3cnco3)ncn1-2` [KRM-II-81, 5-(8-ethynyl-6-(pyridin-2-yl)-4H-benzo[f]imidazo[1,5-a][1,4]diazepin-3-yl)oxazole], the 50% effect level in series [1] (ED50) was put at a dose of 17.3 mg/kg. Also, the “selectivity for α2 and α3 over α1” value in series [2] is “selective for α2 and α 3 over α1”. Also, in series [3] (ip), the ED50 at 30 min is 121 mg/kg. Also, the “loss of righting (mice affected)” value in series [4] (150 mg/kg p.o.) and in series [4] (200 mg/kg p.o.) was 1/8 each time. Also, the “more severe tremor (mice affected)” value in series [4] (200 mg/kg p.o.) is reported as 1/8. For the same compound, the “Observation (motor effects)” value in series [4] (dose 100 mg/kg, p.o.) is listed as “Mild tremor; also recorded: tremors”; in series [4] (dose 150, p.o.) it was “tremor, unable to grasp”; in series [4] (dose 200, p.o.), “more severe tremor'; also recorded: loss of righting”. For the same compound, the “Number with observed motor effects” value is given as 0/8 in series [4] (dose 50, p.o.); 3/8 in series [4] (dose 100, p.o.); 5/8 in series [4] (dose 150, p.o.); 8/8 in series [4] (dose 200, p.o.). Also, the firing rate in series [5] (firing stimulated with AP-4 (50 μM), baseline 0.08±0.01) is given as 0.01±0.005 Hz. The average firing rate in series [5] (in presence of 10 μM picrotoxin, baseline 0.05±0.01 Hz) turned out to be 0.01±0.005 Hz.
In turn, `C#Cc1ccc2c(c1)C(c1ccccc1)=NCc1c(-c3cnco3)ncn1-2` [KRM-II-82, 5-(8-ethynyl-6-phenyl-4H-benzo[f]imidazo[1,5-a][1,4]diazepin-3-yl)oxazole] displayed an MTD at 60 seconds in series [3] (intraperitoneal) of 150 mg/kg.

These data come from patent US20200316087A1, “NOVEL COMBINATION THERAPY FOR ANXIETY DISORDERS, EPILEPSY, AND PAIN” (priority 2017, published 2020).
